The text below walks through data of US6207674A, “Dextromethorphan and oxidase inhibitor for weaning patients from narcotics and anti-depressants” (priority 1999, dated 2001).

Molecules are shown by their SMILES. Read-outs that look alike come from different tables or passages of the source.

Data set [1] has as its system cytochrome P450-2D6 enzyme. As to conditions: cited from earlier work.
The conditions of data set [2]: coadministration with DM; cited from earlier work.
In data set [3] the test system is morphine and anti-depressant dependence. The experiment in a line: Patient Number 1, initial 3-week trial of DM alone (neuropathic pain, weaning from morphine and anti-depressants). Format: in vivo, human. From the text:
They took capsules with 30 milligrams of DM, twice each day.

The subject of a further data set is pain. As to conditions: DM combined with morphine; published reports; cited from earlier work.
[4] abbreviates: read-out: Michaelis-Menton inhibition (Ki) value, P450-2D6, in vitro, Inaba et al 1985.
The mark [5] stands for this setting: DM 30 mg twice a day, oral, about three weeks, no quinidine.

On to `COc1ccc(Cc2nccc3cc(OC)c(OC)cc23)cc1OC` [papaverine], for which, in data set [1] (setting [4]), the inhibitory constant (Ki) was 25 µM.

As for `CC[C@H]1[C@@H]2C[C@H]3[C@@H]4N(C)c5ccccc5[C@]45C[C@@H]([C@H]2[C@H]5O)N3[C@@H]1O` [ajmaline], the inhibition constant Ki in data set [1] (setting [4]) was 2 µM.

As to `CC(CCc1ccccc1)NCC(O)c1ccc(O)c(C(N)=O)c1` (stereo not shown) [labetalol], in data set [1] (setting [4]), the Ki was 7 µM.

As for `O=c1[nH]c2ccccc2n1CCCN1CCC(n2c(=O)[nH]c3cc(Cl)ccc32)CC1` [domperidone], the Ki in data set [1] (setting [4]) was 8 µM.

As to `CC(C)(C)NC[C@H](O)COc1nsnc1N1CCOCC1` [timolol], the Ki in data set [1] (setting [4]) is 18 µM.

For the molecule `Cc1cccc(C)c1OCC(C)N` (stereo not shown) [mexiletine], in data set [1] (setting [4]), the inhibition constant Ki was 30 µM.

For the molecule `C=C[C@H]1C[N@@]2CC[C@H]1C[C@@H]2[C@@H](O)c1ccnc2ccc(OC)cc12` [Quinidine, quinidine], the Ki in data set [1] (setting [4]) was 0.06 µM. Moreover, the “effect on DM concentration / level in blood” value in data set [2] was “increase the level of DM in the blood of most patients”.

As for `COc1ccc2c(c1)[C@]13CCCC[C@@H]1[C@H](C2)N(C)CC3` [DM, dextromethorphan], in data set [3] (setting [5]), the “symptoms reported at follow-up exam” value was “symptoms were unchanged”; the “use and dosages of morphine and WELLBUTRIN” value was “remained the same”. For the same molecule, in data set [3] (reduced from 250 mg, DM 30 mg twice a day, about three weeks, no quinidine), the “nighttime dosage of ELAVIL at follow-up” value was 100 mg. In addition, the “overall result of DM by itself (summary)” value in data set [3] (without an oxidase inhibitor) is “no substantial benefit”. In addition, the “potentiation of pain-relieving activity of morphine” value with pain was “potentiated the pain-relieving activity of morphine”.

As for `CNCCC=C1c2ccccc2CCc2ccccc21` [nortriptyline], the inhibition constant Ki in data set [1] (setting [4]) was 15 µM.

For `C=C[C@H]1C[N@@]2CC[C@H]1C[C@H]2[C@H](O)c1ccnc2ccc(OC)cc12` [quinine], the Ki in data set [1] (setting [4]) is 15 µM.

For the molecule `NC(=O)C1(N2CCCCC2)CCN(CCCC(=O)c2ccc(F)cc2)CC1` [pipamperone], the inhibition constant (Ki) in data set [1] is 4 µM.

Turning to `CC(C)NCC(O)COc1cccc2ccccc12` (stereo not shown) [propranolol], the Ki in data set [1] (setting [4]) was 15 µM.

With `COCCc1ccc(OCC(O)CNC(C)C)cc1` (racemic) [metaprolol], the Ki in data set [1] is 18 µM.

Take `CNCCC(Oc1ccc(C(F)(F)F)cc1)c1ccccc1` (stereo not shown) [Fluoxetine, fluoxetine]: in data set [2], the “effect on DM concentration / level in blood” value is on record as “increase the concentrations of DM”.

For `C=CCOc1ccccc1OCC(O)CNC(C)C` (stereo not shown) [oxprenolol], the inhibition constant (Ki) in data set [1] (setting [4]) was 15 µM.

In the case of `CN1[C@@H](CC(=O)c2ccccc2)CCC[C@H]1C[C@H](O)c1ccccc1` [lobeline], the Ki in data set [1] (setting [4]) is 2 µM.

As to `O=C(CCCN1CCC(O)(c2ccc(Cl)cc2)CC1)c1ccc(F)cc1` [haloperidol], in data set [1], the Ki is 1 µM.
